Drawing on US11440909B2, “10H-phenothiazine ferroptosis inhibitor as well as the preparative method and the use thereof” (CHENGDU HENGHAO INVESTMENT CO. LIMITED, priority 2018, dated 2022), this text covers EC50 for 41 compounds.

Each structure is given as a SMILES string.

The first experiment concerns fibrosarcoma cell line HT1080. The experiment is described as follows: Ferroptosis screening model (MTT method), Erastin-induced ferroptosis. The note with it: HT1080, ferroptosis inducer Erastin, 72 h, average of three tests, read-out: EC50. Format: cell-based, human. As for the experimental part:
The screening model for ferroptosis mainly used MTT method. First, the fibrosarcoma cell line HT1080 was cultured in a dish, and the cells in the logarithmic growth phase were inoculated into a 96-well plate in a certain number (3000-10000 cells/well), 100 μL per well, and then the plate was put in an 5% CO2 incubator at 37° C., to allow the cells to adhere. After 24 h, 100 μL compound solution at a certain concentration prepared in the designated medium and ferroptosis inducer Erastin (with a final concentration of […]) were added, setting 3 replicate wells for each compound to ensure the accuracy of the results, and a negative control group, a positive control group (Fer-15 μM), a blank control group and a solvent control group were included. After addition of drugs, the plate was placed in an incubator and cultivated for 72 h. On the day of MTT experiment, MTT test solution (5 mg/mL MTT solution dissolved in physiological saline, and stored in the dark at 4° C.) was pre-prepared and 20 μL MTT solution was added to each well, then the plate was put in an incubator and continued to incubate for 2-4 h. After that, 50 μL of 20% SDS solution (dissolved in MiliiQ water, added with 1% concentrated hydrochloric acid) was added to each well and kept in an incubator overnight. On the next day, the absorbance at 570 nm was measured with a microplate reader, to calculate the inhibition rate of drugs on ferroptosis. Generally, the absorbance value of the control group should be in the range of 0.8-1.2 as a normal value.
GraphPadPrism5 software was used to fit the change curve of inhibition rate and calculate the EC50.
The EC50 is the midpoint of the concentration-response curve. Regarding `CC(c1ccc2c(c1)Nc1ccccc1S2)c1c2ccccc2cc2ccccc12` (centres unmarked) [Compound A71, 2-(1-(anthrathen-9-yl)ethyl)-10H-phenothiazine], the EC50 amounted to 17 nM. Same read-out and setting: the figure for `COc1ccccc1N1CCN(S(=O)(=O)C(C)c2ccc3c(c2)Nc2ccccc2S3)CC1` (centres unmarked) [Compound C22, 2-(1-((4-(2-methoxylphenyl)piperazin-1-yl)sulfonyl)ethyl)-10H-phenothiazine] is 730 nM.

As to `CC(c1ccc2c(c1)Nc1ccccc1S2)S(=O)(=O)N1CCN(C(=O)c2ccc3c(c2)OCCO3)CC1` (centres unmarked) [Compound C19, (4-((1-(10H-phenothiazin-2-yl)ethyl)sulfonyl)piperazin-1-yl)(2,3-dihydrobenzo[b][1,4]dioxane-6-yl)ketone], the EC50 worked out at 129 nM.

The same experiment, now with this note: Homo sapiens, HT-1080, 72 h, HT1080, ferroptosis inducer Erastin, 72 h, average of three tests, read-out: EC50.
Regarding `C=C(c1ccc(CCCC)cc1)c1ccc2c(c1)Nc1ccccc1S2` [Compound B7, 2-(1-(4-butylphenyl)ethenyl)-10H-phenothiazine], the EC50 worked out at 29 nM. Take `C=C(c1ccc(C(F)(F)F)cc1)c1ccc2c(c1)Nc1ccccc1S2` [Compound B3, 2-(1-(4-(trifluoromethyl)phenyl)ethenyl)-10H-phenothiazine]: the EC50 worked out at 11 nM. `CC(c1ccc(OC(F)(F)F)cc1)c1ccc2c(c1)Nc1ccccc1S2` (centres unmarked) [Compound A23, 2-(1-(4-(trifluoromethoxyl)phenyl)ethyl)-10H-phenothiazine]: the EC50 was 20 nM. For `C=C(c1ccc(C2CCCCC2)cc1)c1ccc2c(c1)Nc1ccccc1S2` [Compound B11, 2-(1-(4-cyclohexylphenyl)ethenyl)-10H-phenothiazine], the EC50 worked out at 39 nM. As to `C=C(c1cccc(O)c1)c1ccc2c(c1)Nc1ccccc1S2` [Compound B18, 3-(1-(10H-phenothiazin-2-yl)ethenyl)phenol], the EC50 worked out at 40 nM. Still for that read-out and setting: next, `CC(c1ccc2c(c1)Nc1ccccc1S2)S(=O)(=O)N1CCN(C(c2ccccc2)c2ccccc2)CC1` (centres unmarked) [Compound C26, 2-(1-((4-diphenylmethylpiperazin-1-yl)sulfonyl)ethyl)-10H-phenothiazine]: 388 nM; `C=C(c1ccc(NC(C)=O)nc1)c1ccc2c(c1)Nc1ccccc1S2` [Compound B43, N-(5-(1-(10H-phenothiazin-2-yl)ethenyl)pyridin-2-yl)acetylamine]: 4 nM; `CC(c1ccc2c(c1)Nc1ccccc1S2)S(=O)(=O)N1CCC(C(N)=O)CC1` (centres unmarked) [Compound C47, 1-((1-(10H-phenothiazin-2-yl)ethyl)sulfonyl)piperidin-4-formamide]: 225 nM. For `CC(c1ccc2c(c1)Nc1ccccc1S2)c1ccc(F)c(C(F)(F)F)c1` (centres unmarked) [Compound A41, 2-(1-(4-fluoro-3-(trifluoromethyl)phenyl)ethyl)-10H-phenothiazine], the EC50 is 18 nM.

Regarding `CC(c1ccc2c(c1)Nc1ccccc1S2)S(=O)(=O)N1CCSCC1` (centres unmarked) [Compound C20, 2-(1-(thiomorpholinesulfonyl)ethyl)-10H-phenothiazine], the EC50 is 31 nM. Same read-out and setting: next, `CC(c1ccc2c(c1)Nc1ccccc1S2)S(=O)(=O)N1CCN(c2ccncc2)CC1` (centres unmarked) [Compound C17, 2-(1-((4-(pyridin-4-yl)piperazin-1-yl)sulfonyl)ethyl)-10H-phenothiazine]: 5 nM. Turning to `C=C(c1ccc(N)nc1)c1ccc2c(c1)Nc1ccccc1S2` [Compound B44, 5-(1-(10H-phenothiazin-2-yl)ethenyl)pyridin-2-amine], the EC50 came out at 11 nM. Turning to `CCCCN1CCN(S(=O)(=O)C(C)c2ccc3c(c2)Nc2ccccc2S3)CC1` (centres unmarked) [Compound C58, 2-(1-((4-butylpiperazin-1-yl)sulfonyl)ethyl)-10H-phenothiazine], the EC50 stood at 178 nM. Turning to `C=C(c1cccc(C(C)(C)C)c1)c1ccc2c(c1)Nc1ccccc1S2` [Compound B25, 2-(1-(3-t-butylphenyl)ethenyl)-10H-phenothiazine], the EC50 came out at 16 nM. `COc1cc(C(C)c2ccc3c(c2)Nc2ccccc2S3)ccc1Cl` (centres unmarked) [Compound A50, 2-(1-(4-chloro-3-methoxylphenyl)ethyl)-10H-phenothiazine]: the EC50 amounted to 25 nM.

For `CC(c1ccc2c(c1)Nc1ccccc1S2)S(=O)(=O)N1CCN(c2ccc([N+](=O)[O-])cc2)CC1` (centres unmarked) [Compound C55, 2-(1-((4-(4-nitrophenyl)piperazin-1-yl)sulfonyl)ethyl)-10H-phenothiazine], the EC50 was 70 nM. Still for that read-out and setting: the figure for `CC(c1ccc2c(c1)Nc1ccccc1S2)S(=O)(=O)N1CCCC1` (centres unmarked) [Compound C21] is 257 nM; for `CC(c1ccc2c(c1)Nc1ccccc1S2)S(=O)(=O)N1CCN(Cc2ccc(Cl)cc2)CC1` (centres unmarked) [Compound C36, 2-(1-((4-(4-chlorobenzyl)piperazin-1-yl)sulfonyl)ethyl)-10H-phenothiazine] it is 129 nM. Take `C=C(c1ccc(CC(C)C)cc1)c1ccc2c(c1)Nc1ccccc1S2` [Compound B12, 2-(1-(4-isobutylphenyl)ethenyl)-10H-phenothiazine]: the EC50 was 40 nM.

For `C=C(c1ccc(S(=O)(=O)NC2CCN(C)CC2)cc1)c1ccc2c(c1)Nc1ccccc1S2` [Compound B59, 4-(1-(10H-phenothiazin-2-yl)ethenyl)-N-(1-methylpiperidin-4-yl)Benzenesulfonamide], the EC50 came out at 0.2 nM. Still for that read-out and setting: next, `COC(=O)c1cc(F)cc(C(C)c2ccc3c(c2)Nc2ccccc2S3)c1` (centres unmarked) [Compound A63, 3-(1-(10H-phenothiazin-2-yl)ethyl)-5-fluorobenzoic acid methyl ester]: 31 nM; `CC(C)c1ccc(C(C)c2ccc3c(c2)Nc2ccccc2S3)cc1` (centres unmarked) [Compound A26, 2-(1-(4-isopropylphenyl)ethyl)-10H-phenothiazine]: 6 nM. On to `COC(=O)c1ccc(C(C)c2ccc3c(c2)Nc2ccccc2S3)cc1` (centres unmarked) [Compound A36, 4-(1-(10H-phenothiazin-2-yl)ethyl)benzoic acid methyl ester], for which the EC50 was 13 nM.

Regarding `CC(c1ccc2c(c1)Nc1ccccc1S2)S(=O)(=O)N1CCN(S(C)(=O)=O)CC1` (centres unmarked) [Compound C16, 2-(1-((4-(methylsulfonyl)piperazin-1-yl)sulfonyl)ethyl)-10H-phenothiazine], the EC50 is 35 nM. Take `CC(c1cc(F)cc(OCc2ccccc2)c1)c1ccc2c(c1)Nc1ccccc1S2` (centres unmarked) [Compound A64, 2-(1-(3-(benzyloxyl)-5-fluorophenyl)ethyl)-10H-phenothiazine]: the EC50 came out at 64 nM. Take `C=C(c1cccc(C(N)=O)c1)c1ccc2c(c1)Nc1ccccc1S2` [Compound B26, 3-(1-(10H-phenothiazin-2-yl)ethenyl)benzamide]: the EC50 stood at 16 nM. Regarding `CCCCc1ccc(C(C)c2ccc3c(c2)Nc2ccccc2S3)cc1` (centres unmarked) [Compound A27, 2-(1-(4-butylphenyl)ethyl)-10H-phenothiazine], the EC50 is 64 nM. On to `CC(c1ccc2c(c1)Nc1ccccc1S2)c1ccc2c(c1)OCCO2` (centres unmarked) [Compound A65, 2-(1-(2,3-dihydrobenzo[b][1,4]dioxa-6-yl)ethyl)-10H-phenothiazine], for which the EC50 worked out at 8 nM.

In the case of `Cc1cc(C)cc(C(C)c2ccc3c(c2)Nc2ccccc2S3)c1` (centres unmarked) [Compound A59, 2-(1-(3,5-dimethylphenyl)ethyl)-10H-phenothiazine], the EC50 turned out to be 20 nM. `CC(c1ccc2c(c1)Nc1ccccc1S2)c1ccc2ccccc2c1` (centres unmarked) [Compound A68, 2-(1-(naphthalen-2-yl)ethyl)-10H-phenothiazine]: the EC50 was determined as 5 nM.

In the case of `C=C(c1ccc(S(=O)(=O)N2CCCC2)cc1)c1ccc2c(c1)Nc1ccccc1S2` [Compound B54, 2-(1-(4-(pyrrolin-1-ylsulfonyl)phenyl)ethenyl)-10H-phenothiazine], the concentration giving a half-maximal response (EC50) was determined as 32 nM. In the case of `CCN1CCN(S(=O)(=O)C(C)c2ccc3c(c2)Nc2ccccc2S3)CC1` (centres unmarked) [Compound C10, 2-(1-((4-ethylpiperazin-1-yl)sulfonyl)ethyl)-10H-phenothiazine], the EC50 was found to be 17 nM. As for `CCOc1cccc(C(C)c2ccc3c(c2)Nc2ccccc2S3)c1` (centres unmarked) [Compound A11, 2-(1-(3-ethoxylphenyl)ethyl)-10H-phenothiazine], the EC50 turned out to be 19 nM.

`CC(c1cncc(C#N)c1)c1ccc2c(c1)Nc1ccccc1S2` (centres unmarked) [Compound A73, 5-(1-(10H-phenothiazin-2-yl)ethyl)nicotinonitrile]: the EC50 stood at 5 nM. Consider `Cc1ccc(C(C)c2ccc3c(c2)Nc2ccccc2S3)cc1[N+](=O)[O-]` (centres unmarked) [Compound A52, 2-(1-(4-methyl-3-nitrophenyl)ethyl)-10H-phenothiazine], for which the EC50 was found to be 13 nM.

For the compound `C=C(c1ccc(C=O)cc1)c1ccc2c(c1)Nc1ccccc1S2` [Compound B13, 4-(1-(10H-phenothiazin-2-yl)ethenyl)benzaldehyde], the EC50 was 30 nM. As to `CC(c1ccc2c(c1)Nc1ccccc1S2)S(=O)(=O)N1CCN(CCc2ccccc2)CC1` (centres unmarked) [Compound C9, 2-(1-((4-phenethylpiperazin-1-yl)sulfonyl)ethyl)-10H-phenothiazine], the EC50 worked out at 85 nM. As to `CC(c1cccc(-c2ccccc2)c1)c1ccc2c(c1)Nc1ccccc1S2` (centres unmarked) [Compound A18, 2-(1-([1,1′-diphenyl]-3-yl)ethyl)-10H-phenothiazine], the EC50 was 70 nM.
